In patent publication US9486417B2, “Transdermal therapeutic system for administering lipophilic and/or sparingly skin-permeable active substances” (LTS Lohmann Therapie-Systeme AG, priority 2005, dated 2016):
≈ marks a conversion by molar mass, not a printed value. Where two headings read alike, the source gives them in different places.

Key:
[1] = cited from earlier work
[2] = pH value of 7.4; cited from earlier work
[3] = cited from earlier work; for half-life: oral administration
[4] = format: in vitro ADME
Experimental: The first preliminary tests carried out in accordance with the present invention with a view to developing a matrix transdermal therapeutic system for administration of vinpocetine led to transdermal therapeutic systems (TTSs) by means of which a skin flux (permeation rate in steady state) of 0.91 μg/cm^2×h could be achieved. In order to adjust the therapeutically required concentration of 2 to 3 ng/ml of vinpocetine in a patient's plasma, a transdermal therapeutic system that is designed for an application period of 24 hours would have to have an area of about 120 cm^2. For reasons of patient acceptance, however, the surface area of a transdermal therapeutic system should be kept as small as possible and, if possible, should not exceed 40 cm^2, preferably 20 cm^2.

[5] = 1% suspension of vinpocetine in ethanol and 1-menthol applied directly to human full-thickness skin in vitro; cited from earlier work

| skin flux (permeation rate in steady state) [4] [μg/cm^2×h] | SMILES | water solubility ([1]; base, 22° C.) [µg/mL] | solubility in ethanol or DMSO ([1]; ethanol or DMSO) | proportion present in cationic form [2] | bioavailability ([3]; gastrointestinal absorption, not metabolised presystemically) | therapeutically required / effective plasma level ([3]; patient's plasma) | water-solubility ([1]; base, 22° C.) [µg/mL] | half-life [3] | permeation rate [5] [μg/cm^2×h] | water-solubility ([1]; room temperature) [µg/mL] | time to enter the blood stream after administration ([3]; oral, fasting or with meals) | time until excreted by the body almost completely ([3]; oral) |
| --- | --- | --- | --- | --- | --- | --- | --- | --- | --- | --- | --- | --- |
|  | COc1nc(C)nc(Cl)c1NC1=NCCN1 [moxonidine, 4-chloro-N-(4,5-dihydro-1H-imidazol-2-yl)-6-methoxy-2-methyl-5-pyrimidinamine] | 1360 (≈ 5.63 mM) | up to 100 mM | about 50% | about 90% | around 5.4 ng/ml |  |  |  |  |  |  |
|  | CCCN1C[C@H](CSC)C[C@@H]2c3cccc4[nH]cc(c34)C[C@H]21 [pergolide, D-6-n-propyl-8 β-methyl-mercaptomethyl-ergoline] |  |  |  |  |  | 0.021 | 27 h |  |  |  |  |
| 0.91 | CCOC(=O)C1=C[C@]2(CC)CCCN3CCc4c(n1c1ccccc41)[C@@H]32 [vinpocetine, ethyl apovincamin-22-oate] |  |  |  |  |  |  | one to two | 6.45 | 0.02 | about half an hour | eight |
